Each block holds one compound with its values, some of them ahead of it.
Experiment: solvent given as SMILES

emission maximum (in CCO): 468 nm
emission maximum (in ClC(Cl)Cl): 454 nm
SMILES: CCOc1ccc2c(-c3nc(-c4ccccc4)no3)cc(=O)oc2c1

emission maximum (in C1CCCCC1): 400 nm
SMILES: CCCC1(CCC)c2cc(-c3ccc4c(c3)C(CCC)(CCC)c3cc(C(C)(C)CC)ccc3-4)ccc2-c2ccc(-c3ccc4c(c3)C(CCC)(CCC)c3cc(C(C)(C)CC)ccc3-4)cc21

emission maximum (in CCO): 530 nm
emission maximum (in ClCCl): 526 nm
emission maximum (in O): 563 nm
SMILES: O=Cc1ccc(-c2ccc(-c3nc4ccccc4s3)c(O)c2)o1

emission maximum (in ClC(Cl)Cl): 371 nm
SMILES: CCCCc1cc(-c2cccc(COC)c2)oc1-c1cccc(-c2oc(-c3cccc(COC)c3)cc2CCCC)c1

emission maximum (in CC1CCCCC1): 498 nm
emission maximum (in CC#N): 530 nm
SMILES: C(=C\c1ccnc2ccccc12)/c1c2ccccc2cc2ccccc12

emission maximum (in CO): 794 nm
SMILES: CC1(C)C(/C=C/C2=C(Oc3ccc(CCN=C=S)cc3)C(=C/C=C3/N(CCCS(=O)(=O)[O-])c4ccccc4C3(C)C)/CCC2)=[N+](CCCS(=O)(=O)[O-])c2ccccc21

emission maximum (in CO): 399 nm
SMILES: Cc1ccc(-c2nc(-c3cccc(O)c3)[nH]c2-c2ccc(C)cc2)cc1

emission maximum (in ClC(Cl)Cl): 620 nm
SMILES: CCCCN1c2ccc(/C=C/c3cc(=O)oc4cc(C)ccc34)cc2Sc2cc(/C=C/c3cc(=O)oc4cc(C)ccc34)ccc21

emission maximum (in ClC(Cl)Cl): 505 nm
SMILES: COc1ccc(-c2oc3cccc4c5c(-c6ccc(OC)cc6)c(=N)oc6cccc(c2c34)c65)cc1

emission maximum (in ClC(Cl)Cl): 661 nm
SMILES: CCCCCCCCOc1ccc(-c2c3c4n(c(-c5ccc(OCCCCCCCC)cc5)c3c3n2[B-](F)(F)[n+]2ccccc2N=3)[B-](F)(F)[n+]2ccccc2N=4)cc1

emission maximum (in CC#N): 415 nm
SMILES: CCOC(=O)c1c2c3c(ccc(F)c3c3cc4ccccc4cc13)N(C)C2=O

emission maximum (in O): 660 nm
SMILES: C#CCOc1ccc(/C=C/C2=[N+]3C(=C(c4ccc(N(CC)CC)cc4)c4c(C)cc(/C=C/c5ccc(S(=O)(=O)O)cc5S(=O)(=O)O)n4[B-]3(F)F)C(C)=C2)cc1

emission maximum (in ClC(Cl)Cl): 422 nm
SMILES: Cc1ccc2c3ccc(C)cc3c3cc4c(C)cc(=O)oc4cc3c2c1

emission maximum (in C1CCCCC1): 387 nm
SMILES: CCCC1(CCC)c2cc(-c3ccccc3)ccc2-c2ccc(-c3ccc4c(c3)C(CCC)(CCC)c3cc(-c5ccccc5)ccc3-4)cc21

emission maximum (in CO): 574 nm
SMILES: COC(=O)COc1ccc(/C=C/C2=[N+]3C(=C(c4ccccc4)c4c(C)cc(C)n4[B-]3(F)F)C(C)=C2)cc1

emission maximum (in ClCCl): 418 nm
SMILES: COc1ccc(C2=Cc3ccccc3[Si]2(c2ccccc2)c2ccccc2)cc1

emission maximum (in CC#N): 525 nm
SMILES: Oc1ccc2ccccc2c1/C=N/c1cc2nc3ccccc3nc2cc1/N=C/c1c(O)ccc2ccccc12

The remaining lines, values behind:

SMILES: O=P1(c2ccccc2)C(c2ccc(C3=Cc4ccccc4P3(=O)c3ccccc3)cc2)=Cc2ccccc21 (centres undefined)
emission maximum (in C1CCOC1): 431 nm

SMILES: CCC1=C(C)C2=Cc3cccn3[B-](F)(F)[N+]2=C1C
emission maximum (in C1CCCCC1): 517.5 nm
emission maximum (in CC(C)=O): 516 nm
emission maximum (in CCO): 517 nm
emission maximum (in CCOC(C)=O): 516.5 nm
emission maximum (in CO): 516.5 nm
emission maximum (in OCC(F)(F)F): 515.5 nm

SMILES: COC(=O)/C(C#N)=c1\s/c(=c2/s/c(=C(/C#N)C(=O)OC)c3cc(-c4ccc(F)cc4)sc23)c2sc(-c3ccc(F)cc3)cc12
emission maximum (in Cc1ccccc1): 640 nm

SMILES: Cc1ccc(Nc2ccc(Nc3ccc(C)cc3)c3c2C(=O)c2ccccc2C3=O)cc1
emission maximum (in C1CCCCC1): 680 nm
emission maximum (in C1COCCO1): 684 nm
emission maximum (in CC(C)=O): 684 nm
emission maximum (in CCCCCCCCCCO): 682 nm
emission maximum (in CCCCCCCO): 684 nm
emission maximum (in CCCCCCO): 682 nm
emission maximum (in CCCCO): 683 nm
emission maximum (in CCO): 684 nm
emission maximum (in CN(C)C=O): 686 nm
emission maximum (in CO): 682 nm
emission maximum (in CS(C)=O): 689 nm
emission maximum (in ClC(Cl)(Cl)Cl): 685 nm
emission maximum (in c1ccccc1): 684 nm

SMILES: Cn1c(=O)c(-c2ccccc2)nc2ccccc21
emission maximum (in c1ccccc1): 424 nm

SMILES: CCOC(=O)/N=c1/oc2cc(OC)cc(OC)c2cc1C#N
emission maximum (in ClCCl): 442 nm

SMILES: CN(c1ccccc1)c1ccc(N(c2ccccc2)c2ccc3ccc4c(N(c5ccccc5)c5ccc(N(C)c6ccccc6)cc5)ccc5ccc2c3c54)cc1
emission maximum (in ClCCl): 620 nm

SMILES: Cc1ccc(-c2ccc(-c3ccc(-c4ccc(C)cc4)cc3/C(=C(/c3ccccc3)c3cc(-c4ccc(C)cc4)ccc3-c3ccc(-c4ccc(C)cc4)cc3)c3ccccc3)cc2)cc1
emission maximum (in C1CCOC1): 498 nm

SMILES: CCOC(=O)c1ccc(NC(=O)COc2cc3c4c([nH]c3c(C)c2C)C(=O)CCC4)cc1
emission maximum (in C1COCCO1): 408.59 nm
emission maximum (in CC#N): 422.39 nm
emission maximum (in CCO): 464.31 nm
emission maximum (in CS(C)=O): 426.09 nm
emission maximum (in O): 468.86 nm
emission maximum (in c1ccccc1): 411.45 nm

SMILES: Cc1ccc(N(c2ccc(C)cc2)c2ccc(Oc3nnc(Cl)nn3)cc2)cc1
emission maximum (in ClCCl): 550 nm

SMILES: NS(=O)(=O)c1ccc(N2N=C(c3ccc(O)cc3)CC2c2ccc(F)cc2)cc1 (centres undefined)
emission maximum (in C1CCOC1): 417 nm
emission maximum (in C1COCCO1): 417 nm
emission maximum (in CC#N): 417 nm
emission maximum (in CC(C)O): 423 nm
emission maximum (in CCO): 427 nm
emission maximum (in CCOC(C)=O): 416 nm
emission maximum (in CN(C)C=O): 421 nm
emission maximum (in CO): 430 nm
emission maximum (in CS(C)=O): 424 nm
emission maximum (in O): 448 nm

SMILES: O=C1NC(=O)c2c1c1c3ccccc3[nH]c1c1[nH]c3ccccc3c21
emission maximum (in C1CCOC1): 475 nm
emission maximum (in CC#N): 500 nm
emission maximum (in CC(C)OC(C)C): 450 nm
emission maximum (in CCCCOCCCC): 461 nm
emission maximum (in CCO): 550 nm
emission maximum (in CCOC(C)=O): 473 nm
emission maximum (in CN(C)C=O): 503 nm
emission maximum (in Cc1ccccc1): 465 nm
emission maximum (in ClCCl): 492 nm

SMILES: COC(=O)c1cc(=O)n(C)c2cc(-c3ccc(N(C)C)cc3)sc12
emission maximum (in CC#N): 599 nm
emission maximum (in ClCCl): 554 nm

SMILES: CC(C)(C)c1cc2c(c(C(C)(C)C)c1)O[B-](F)(F)[n+]1c-2nc(-c2ccccc2)c2cc(Cl)ccc21
emission maximum (in Cc1ccccc1): 552 nm

SMILES: CCOC(=O)/N=c1/oc2cc(N(CC)CC)ccc2cc1C#N
emission maximum (in ClCCl): 486 nm

SMILES: C(=C\c1nc2ccccc2[nH]1)/c1ccc(/C=C/c2nc3ccccc3[nH]2)cc1
emission maximum (in C1CCOC1): 428 nm
emission maximum (in CC#N): 427 nm
emission maximum (in CC(C)=O): 427 nm
emission maximum (in CN(C)C=O): 433 nm
emission maximum (in CO): 422 nm
emission maximum (in CS(C)=O): 439 nm

SMILES: CCOC(=O)COc1ccc(/C=C/C2=C3c4ccccc4C(c4ccc[nH]4)=[N+]3[B-](F)(F)n3ccc(C)c32)cc1
emission maximum (in C1CCOC1): 625 nm
emission maximum (in CC#N): 617 nm
emission maximum (in CCCCCC): 630 nm
emission maximum (in CO): 624 nm
emission maximum (in Cc1ccccc1): 637 nm
emission maximum (in ClCCl): 631 nm

SMILES: Fc1c(-n2c3ccccc3c3ccccc32)c(F)c(-n2c3ccccc3c3ccccc32)c(-c2nnc(-c3ccccc3)o2)c1-n1c2ccccc2c2ccccc21
emission maximum (in Cc1ccccc1): 490 nm

SMILES: CCN(CC)c1ccc(C=Cc2nc3nc4ccccc4nc3s2)cc1
emission maximum (in CO): 630 nm

SMILES: COc1ccc(-c2nc3ccccc3nc2/C=C/N2CCCC2)s1
emission maximum (in CC#N): 583.94 nm

SMILES: C(=C\c1ccc(/C=C/c2ccc(N(c3ccccc3)c3ccccc3)cc2)cc1)/c1ccc(/C=C/c2ccc(N(c3ccccc3)c3ccccc3)cc2)cc1
emission maximum (in ClCCl): 510 nm

SMILES: Cc1cc(N2c3ccccc3[Si](c3ccccc3)(c3ccccc3)c3ccccc32)c(C)cc1-c1nc(-c2ccccc2)nc(-c2ccccc2)n1
emission maximum (in Cc1ccccc1): 465 nm
emission maximum (in O=P(c1ccccc1)(c1ccccc1)c1ccccc1Oc1ccccc1P(=O)(c1ccccc1)c1ccccc1): 465 nm

SMILES: O=c1ccc2cc3c(cc2o1)OCC3
emission maximum (in CC(C)O): 400 nm
emission maximum (in CCO): 402 nm
emission maximum (in CCOCC): 397 nm
emission maximum (in CO): 405 nm
emission maximum (in O): 410 nm

SMILES: CN(C)c1ccc(/C=C/C=C/c2ccc(B(O)O)cc2)cc1
emission maximum (in C1CCCCC1): 441 nm

SMILES: Cc1c2c(c(C)c3ccccc13)C1=CC3Nc4ccccc4NC3C=C12 (centres undefined)
emission maximum (in ClC(Cl)Cl): 502 nm

SMILES: CO[B-]1(OC)n2c(C)cc(C)c2C(c2ccc(I)cc2)=C2C(C)=CC(C)=[N+]21
emission maximum (in ClC(Cl)Cl): 517.6 nm

SMILES: C(=C\c1ncnc2ccccc12)/c1ccc(N2CCCCC2)cc1
emission maximum (in C1CCCCC1): 480 nm
emission maximum (in C1CCOC1): 540 nm
emission maximum (in CC#N): 579 nm
emission maximum (in CS(C)=O): 589 nm
emission maximum (in ClCCl): 558 nm

SMILES: O=C(c1ccc2c3c(cccc13)-c1cccc3c1C2CC=C3)c1c(Cc2ccccc2)c2ccc3cccc4c5cccc6ccc1c(c65)c2c34 (centres undefined)
emission maximum (in ClCCl): 528 nm

SMILES: C[Si](C)(C)C#CC(C#C[Si](C)(C)C)=Cc1ccc(C=C(C#C[Si](C)(C)C)C#C[Si](C)(C)C)s1
emission maximum (in ClC(Cl)Cl): 475 nm

SMILES: CCCCN(CCCC)c1ccc(C#Cc2cc(C#Cc3ccc(N(CCCC)CCCC)cc3)c(C#Cc3c(F)c(F)c(F)c(F)c3F)cc2C#Cc2c(F)c(F)c(F)c(F)c2F)cc1
emission maximum (in ClCCl): 555 nm
emission maximum (in c1ccccc1): 512 nm

SMILES: Nc1cc([NH3+])cc(-c2nc3ccccc3s2)c1
emission maximum (in O): 493.5 nm

SMILES: CC1=CC(C)=[N+]2C1=Cc1c3ccccc3c(C#Cc3cccs3)n1[B-]2(F)F
emission maximum (in CCCCCC): 628 nm
emission maximum (in CCCCCCCCO): 636 nm
emission maximum (in CCOC(C)=O): 632 nm
emission maximum (in CN(C)C=O): 639 nm
emission maximum (in ClCCl): 631 nm

SMILES: N#CSC1=CC2=C(c3ccccc3)c3ccc(SC#N)n3[B-](F)(F)[N+]2=C1N1CCOCC1
emission maximum (in CC#N): 585 nm
emission maximum (in CCCCCC): 588 nm
emission maximum (in CCOC(C)=O): 589 nm
emission maximum (in CO): 583 nm
emission maximum (in ClCCl): 594 nm

SMILES: CC1CC=C(c2ccc(-c3ccc(C=O)s3)s2)CC1 (centres undefined)
emission maximum (in C1CCOC1): 467 nm
emission maximum (in CC#N): 482 nm
emission maximum (in CCCCCC): 445 nm
emission maximum (in CCO): 500 nm
emission maximum (in OCCOCCO): 508 nm
emission maximum (in c1ccncc1): 483 nm

SMILES: CC(C)(C)c1ccc2c(c1)c1cc(C(C)(C)C)ccc1n2-c1ccc(-c2cccs2)s1
emission maximum (in ClCCl): 417 nm

SMILES: CCOC(=O)CCCCCn1c2ccccc2c(=O)c2cc(I)ccc21
emission maximum (in CO): 430 nm

SMILES: CCC1=C(C)C2=Cc3c4ccccc4c4n3[B-](c3ccncc3)(Oc3ccccc3-4)[N+]2=C1C=Cc1ccc(OC)cc1 (centres undefined)
emission maximum (in CC#N): 712 nm
emission maximum (in CCCCCC): 711 nm
emission maximum (in Cc1ccccc1): 720 nm
emission maximum (in ClCCl): 717 nm

Reference: the Deep4Chem optical property database
